Publication PMC7508628, “Targeting the Respiratory Syncytial Virus N^0-P Complex with Constrained α-Helical Peptides in Cells and Mice” (Antimicrobial Agents and Chemotherapy, 2020)
Where a SMILES comes first, the peptide text is derived from it. Bridges are numbered along the chain shown (N, C = ends). [ ]: non-standard residue; d: D form. R8 = C=CCCCCCC[C@@](C)(N)C(=O)O; R5 = C=CCCC[C@@](C)(N)C(=O)O; S5 = C=CCCC[C@](C)(N)C(=O)O

Test: Circular dichroism spectroscopy, α-helical content
Format: physicochemical
Conditions: CD, 10 mM phosphate buffer pH 7.5, 50 μM peptide, 25°C, calculated from ellipticity at 222 nm; average of three measurements
Experimental: The α-helical stabilization appeared to be higher for the i, i + 7 staples overall.
The circular dichroism spectra were acquired on a Chirascan spectropolarimeter. The samples were prepared in 10 mM phosphate buffer, pH 7.5, at a peptide concentration of 50 μM. Data were recorded at 25°C by step scan from 180 nm to 260 nm in a 0.5-mm-pathlength quartz cell using 0.2-nm-wavelength increments, a 1-nm bandwidth, and a response time of 1 s. Each spectrum was an average of three measurements and was subtracted from the buffer baseline. The data were converted to per residue molar ellipticity units (θ; in degrees · square centimeters · decimoles^−1 · number of residues^−1) and smoothed using Igor Pro software. Percent helicity was calculated as follows: (100 × CD222)/(C × N × {40,000 × [1 − (2.5/N)]}), where CD222 is the molar ellipticity (θ) at 222 nm (in millidegrees), N is the number of amino acids in the peptide, and C is the peptide molar concentration (in moles per liter).
With `CC[C@H](C)[C@H](NC(=O)[C@H](CO)NC(=O)[C@H](CCC(=O)O)NC(=O)[C@H](CC(C)C)NC(=O)[C@H](Cc1ccccc1)NC(=O)[C@H](CCCCN)NC(=O)[C@@H](NC(=O)[C@H](C)NC(=O)[C@]1(C)CCCC=CCCCCCC[C@@](C)(NC(=O)[C@H](Cc2ccccc2)NC(=O)[C@H](CCC(=O)O)NC(C)=O)C(=O)NCC(=O)N[C@@H](CCC(=O)O)C(=O)N[C@@H](CC(=O)O)C(=O)N[C@@H](C)C(=O)N[C@@H](CC(N)=O)C(=O)N[C@@H](CC(N)=O)C(=O)N1)[C@@H](C)O)C(=O)N[C@@H](CCCCN)C(=O)NCC(=O)N[C@@H](CCCCN)C(=O)N[C@@H](Cc1ccccc1)C(=O)N[C@@H](C)C(=O)N[C@@H](CO)C(N)=O` [4e] (Ac-EF[R8]GEDANN[S5]ATKFLESIKGKFAS-NH2; staple 3-10) the “% helicity” value was 28.8%.
For `CC[C@H](C)[C@H](NC(=O)[C@H](CO)NC(=O)[C@H](CCC(=O)O)NC(=O)[C@H](CC(C)C)NC(=O)[C@H](Cc1ccccc1)NC(=O)[C@H](CCCCN)NC(=O)[C@@H](NC(=O)[C@H](C)NC(=O)[C@]1(C)CCCC=CCCC[C@](C)(NC(=O)[C@H](CCC(=O)O)NC(=O)CNC(=O)[C@H](Cc2c[nH]cn2)NC(=O)[C@H](Cc2ccccc2)NC(=O)[C@H](CCC(=O)O)NC(C)=O)C(=O)N[C@@H](C)C(=O)N[C@@H](CC(N)=O)C(=O)N[C@@H](CC(N)=O)C(=O)N1)[C@@H](C)O)C(=O)N[C@@H](CCCCN)C(=O)NCC(=O)N[C@@H](CCCCN)C(=O)N[C@@H](Cc1ccccc1)C(=O)N[C@@H](C)C(=O)N[C@@H](CO)C(N)=O` [4d] (Ac-EFHGE[S5]ANN[S5]ATKFLESIKGKFAS-NH2; staple 6-10), the “% helicity” value was 28.0%.
For `CC[C@H](C)[C@H](NC(=O)[C@H](CO)NC(=O)[C@H](CCC(=O)O)NC(=O)[C@H](CC(C)C)NC(=O)[C@H](Cc1ccccc1)NC(=O)[C@]1(C)CCCC=CCCCCCC[C@@](C)(NC(=O)[C@H](CCC(=O)O)NC(=O)CNC(=O)[C@H](Cc2c[nH]cn2)NC(=O)[C@H](Cc2ccccc2)NC(=O)[C@H](CCC(=O)O)NC(C)=O)C(=O)N[C@@H](C)C(=O)N[C@@H](CC(N)=O)C(=O)N[C@@H](CC(N)=O)C(=O)N[C@@H](CCCCN)C(=O)N[C@@H](C)C(=O)N[C@@H]([C@@H](C)O)C(=O)N1)C(=O)N[C@@H](CCCCN)C(=O)NCC(=O)N[C@@H](CCCCN)C(=O)N[C@@H](Cc1ccccc1)C(=O)N[C@@H](C)C(=O)N[C@@H](CO)C(N)=O` [4f] (Ac-EFHGE[R8]ANNKAT[S5]FLESIKGKFAS-NH2; staple 6-13), the “% helicity” value was 17.2%.
For `CC[C@H](C)[C@H](NC(=O)[C@H](CO)NC(=O)[C@H](CCC(=O)O)NC(=O)[C@H](CC(C)C)NC(=O)[C@H](Cc1ccccc1)NC(=O)[C@]1(C)CCCC=CCCC[C@@](C)(NC(=O)[C@H](CC(N)=O)NC(=O)[C@H](CC(N)=O)NC(=O)[C@H](C)NC(=O)[C@H](CC(=O)O)NC(=O)[C@H](CCC(=O)O)NC(C)=O)C(=O)N[C@@H](C)C(=O)N[C@@H]([C@@H](C)O)C(=O)N1)C(=O)N[C@@H](CCCCN)C(=O)NCC(=O)N[C@@H](CCCCN)C(=O)N[C@@H](Cc1ccccc1)C(=O)N[C@@H](C)C(=O)N[C@@H](CO)C(N)=O` [1b] (Ac-EDANN[R5]AT[S5]FLESIKGKFAS-NH2; staple 6-9), the “% helicity” value was 11.5%.
With `CC[C@H](C)[C@H](NC(=O)[C@]1(C)CCCCCCC=CCCCC2(CCCC=CCCCCCC[C@@](C)(NC(=O)[C@H](Cc3ccccc3)NC(=O)[C@H](CCC(=O)O)NC(C)=O)C(=O)NCC(=O)N[C@@H](CCC(=O)O)C(=O)N[C@@H](CC(=O)O)C(=O)N[C@@H](C)C(=O)N[C@@H](CC(N)=O)C(=O)N[C@@H](CC(N)=O)C(=O)N2)C(=O)N[C@@H](C)C(=O)N[C@@H]([C@@H](C)O)C(=O)N[C@@H](CCCCN)C(=O)N[C@@H](Cc2ccccc2)C(=O)N[C@@H](CC(C)C)C(=O)N[C@@H](CCC(=O)O)C(=O)N1)C(=O)N[C@@H](CCCCN)C(=O)NCC(=O)N[C@@H](CCCCN)C(=O)N[C@@H](Cc1ccccc1)C(=O)N[C@@H](C)C(=O)N[C@@H](CO)C(N)=O` (stereo partly drawn) [4e3b] the “% helicity” value was 51.1%.
With `CC[C@H](C)[C@H](NC(=O)[C@H](CO)NC(=O)[C@H](CCC(=O)O)NC(=O)[C@H](CC(C)C)NC(=O)[C@H](Cc1ccccc1)NC(=O)[C@H](CCCCN)NC(=O)[C@@H](NC(=O)[C@H](C)NC(=O)[C@H](CCCCN)NC(=O)[C@]1(C)CCCC=CCCC[C@@](C)(NC(=O)[C@H](CCC(=O)O)NC(=O)CNC(=O)[C@H](Cc2c[nH]cn2)NC(=O)[C@H](Cc2ccccc2)NC(=O)[C@H](CCC(=O)O)NC(C)=O)C(=O)N[C@@H](C)C(=O)N[C@@H](CC(N)=O)C(=O)N1)[C@@H](C)O)C(=O)N[C@@H](CCCCN)C(=O)NCC(=O)N[C@@H](CCCCN)C(=O)N[C@@H](Cc1ccccc1)C(=O)N[C@@H](C)C(=O)N[C@@H](CO)C(N)=O` [4b] (Ac-EFHGE[R5]AN[S5]KATKFLESIKGKFAS-NH2; staple 6-9) the “% helicity” value was 21.7%.
In the case of `CC[C@H](C)[C@@H]1NC(=O)[C@H](CO)NC(=O)[C@@](C)(NC(=O)[C@H](CC(C)C)NC(=O)[C@H](Cc2ccccc2)NC(=O)[C@H](CCCCN)NC(=O)[C@@H](NC(=O)[C@H](C)NC(=O)[C@H](CCCCN)NC(=O)[C@H](CC(N)=O)NC(=O)[C@H](CC(N)=O)NC(=O)[C@H](C)NC(=O)[C@H](CC(=O)O)NC(=O)[C@H](CCC(=O)O)NC(=O)CNC(=O)[C@H](Cc2c[nH]cn2)NC(=O)[C@H](Cc2ccccc2)NC(=O)[C@H](CCC(=O)O)NC(C)=O)[C@@H](C)O)CCCC=CCCCC2(CCCC=CCCC[C@@](C)(C(=O)N[C@@H](CO)C(N)=O)NC(=O)[C@H](Cc3ccccc3)NC(=O)[C@H](CCCCN)NC2=O)NC(=O)[C@H](CCCCN)NC1=O` (stereo partly drawn) [2e1f], the “% helicity” value is reported as 27.0%.
In the case of `CC[C@H](C)[C@H](NC(=O)[C@]1(C)CCCC=CCCCCCC[C@@](C)(NC(=O)[C@H](CC(N)=O)NC(=O)[C@H](CC(N)=O)NC(=O)[C@H](C)NC(=O)[C@H](CC(=O)O)NC(=O)[C@H](CCC(=O)O)NC(=O)CNC(=O)[C@H](Cc2c[nH]cn2)NC(=O)[C@H](Cc2ccccc2)NC(=O)[C@H](CCC(=O)O)NC(C)=O)C(=O)N[C@@H](C)C(=O)N[C@@H]([C@@H](C)O)C(=O)N[C@@H](CCCCN)C(=O)N[C@@H](Cc2ccccc2)C(=O)N[C@@H](CC(C)C)C(=O)N[C@@H](CCC(=O)O)C(=O)N1)C(=O)N[C@@H](CCCCN)C(=O)NCC(=O)N[C@@H](CCCCN)C(=O)N[C@@H](Cc1ccccc1)C(=O)N[C@@H](C)C(=O)N[C@@H](CO)C(N)=O` [4g], the “% helicity” value is reported as 47.6%.

Test: circular dichroism
Conditions: 10 mM phosphate; pH 7.5; 25 °C; 50 uM
For `CC[C@H](C)[C@@H]1NC(=O)[C@H](CO)NC(=O)[C@](C)(NC(=O)[C@H](CC(C)C)NC(=O)[C@H](Cc2ccccc2)NC(=O)[C@H](CCCCN)NC(=O)[C@@H](NC(=O)[C@H](C)NC(=O)[C@H](CCCCN)NC(=O)[C@H](CC(N)=O)NC(=O)[C@H](CC(N)=O)NC(=O)[C@H](C)NC(=O)[C@H](CC(=O)O)NC(=O)[C@H](CCC(=O)O)NC(C)=O)[C@@H](C)O)CCCCCCC=CCCC[C@@](C)(C(=O)N[C@@H](CO)C(N)=O)NC(=O)[C@H](Cc2ccccc2)NC(=O)[C@H](CCCCN)NC(=O)CNC(=O)[C@H](CCCCN)NC1=O` (Ac-EDANNKATKFL[R8]SIKGKF[S5]S-NH2; staple 12-19), the helicity was 35.3%.
